Measured values: PubChem BioAssay AID2060486 (Molecular Pharmacology Branch, DTP, NCI, 2025)

System: IGROV1 complex spheroids (HUVEC, MSC), viability % test/control
Assay: Anticancer human tumor IGROV1 cell line growth inhibition [GQUAD];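 note: spheroids exposed to compounds for 7 days before readout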
Details: for IC50: curve of first compound; for viability, T/C: stronger effect = lower value; active = viability on the fitted dose curve at most 10% of control; inactive = the rest
From the text: DNA G-quadruplex Stabilizer Agents in Combinations in Complex Spheroids
A high-throughput screen of multi-cell type tumor spheroids was designed to identify active combinations of DNA G-quadruplex stabilizer agents and targeted small molecules. Complex spheroids include a stromal component modeled by human endothelial cells (HUVEC) and fibroblasts modeled by human mesenchymal stem cells (MSCs). The concentration ranges selected for each drug and investigational agent were based upon clinically achievable concentrations if the clinical Cmax of the agent was known.
Compounds. The drugs and investigational agents: pidnarulex (CX-5461; NSC782164), APTO-253 (NSC789042), BRACO-19 (NSC847499), peposertib (NSC802822), ceralasertib (NSC780249), elimusertib (NSC800525), camonsertib (NSC841442), AZD-1390 (NSC803789), olaparib (NSC753686), talazoparib (NSC767125), ART-558 (NSC835418), sotorasib (NSC818433), MRTX-1133 (NSC836407), SN-38 (NSC673596), topotecan (NSC609699), etoposide (NSC141540), doxorubicin (NSC123127), gemcitabine (NSC613327), 5-fluorouracil (NSC19893), paclitaxel (NSC125973), vemurafenib (NSC761431), panobinostat (NSC761190), R-306465 (JNJ-16241199; NSC773264), adavosertib (NSC754352), TP-3654 (NSC805149), carboplatin (NSC241240), KSQ-4279 (NSC840948), and staurosporine (NSC755774) were obtained from the National Cancer Institute (NCI) Developmental Therapeutics Program Chemical Repository (34). The FDA-approved anticancer drug set is available from the NCI Developmental Therapeutics Program. […] The stock solutions were prepared in dimethyl sulfoxide (DMSO, Sigma-Aldrich, St. Louis, MO, cat. D2650) at 800-fold the tested concentration and stored at -70 degrees C prior to their use. All drugs and investigational agents were tested over a range starting from a high concentration at or near the clinical Cmax and decreasing in half-log increments. If the clinical Cmax for an agent had not been determined, the highest concentration tested was 10 microM.
2.3 Cell Culture. All cells were maintained in an incubator at 37 degrees C and 5% CO2 with 95% humidity. The PDC lines were cultured according to standard operating procedures established by the NCI PDMR. All PDCs were thawed and cultured in Matrigel-coated flasks prepared with a working solution of 1X Ham's F-12 nutrient mix, without supplementation (Invitrogen, cat. 11765054), 100 U/mL penicillin-streptomycin (Invitrogen, cat. 15140122), and 2.5% Matrigel (Corning Inc., cat. 354248) for the first three passages. The 857933-349-R-J2-PDC line was cultured in 6C/Colon 1B media, which includes advanced DMEM/F-12 (Thermo Fisher Scientific, cat. 12634028), 10 mM HEPES (Thermo Fisher Scientific, cat. 15630080), 1X GlutaMAX supplement (Thermo Fisher Scientific, cat. 35050061), 0.1 mg/mL primocin (InvivoGen, cat. ant-pm-2), 10% defined fetal bovine serum, heat inactivated (HyClone Laboratories Inc., cat. SH30070.03HI), 50% L-WRN conditioned media (ATCC, cat. CRL-3276), 1.25 mM N-Acetyl-L-cysteine (Sigma-Aldrich, cat. A9165), 10 mM nicotinamide (Sigma-Aldrich, cat. N0636), 1X B-27 supplement (Thermo Fisher Scientific, cat. 17504044), 1X N-2 supplement (Thermo Fisher Scientific, cat. 17502048), 10 microM Y-27632 dihydrochloride (Tocris Bioscience, cat. 1254), and 50 ng/mL human EGF recombinant protein (Thermo Fisher Scientific, cat. PHG0311). The 485176-168-R4-J1-PDC line was cultured in Panc media, which includes all 6C/Colon 1B media components plus 100 ng/mL human FGF-10 (Thermo Fisher Scientific, cat. 100-26), 500 nM SB-431542 (Selleckchem, cat. S1067), and gastrin (Tocris, cat. 3006).
[…]

[1] = second compound 0.0316 µM, first compound 0.0316 µM
[2] = second compound 0.0316 µM, first compound 0.1 µM
[3] = second compound 0.0316 µM, first compound 0.316 µM
[4] = second compound 0.0316 µM, first compound 1 µM
[5] = second compound 0.0316 µM, first compound 3.16 µM
[6] = second compound 0.0316 µM, first compound 10 µM
[7] = second compound 0.1 µM, first compound 0.0316 µM
[8] = second compound 0.1 µM, first compound 0.1 µM
[9] = second compound 0.1 µM, first compound 0.316 µM
[10] = second compound 0.1 µM, first compound 1 µM
[11] = second compound 0.1 µM, first compound 3.16 µM
[12] = second compound 0.1 µM, first compound 10 µM
[13] = second compound 0.316 µM, first compound 0.0316 µM
[14] = second compound 0.316 µM, first compound 0.1 µM
[15] = second compound 0.316 µM, first compound 0.316 µM
[16] = second compound 0.316 µM, first compound 1 µM
[17] = second compound 0.316 µM, first compound 3.16 µM
[18] = second compound 0.316 µM, first compound 10 µM
[19] = second compound 1 µM, first compound 0.0316 µM
[20] = second compound 1 µM, first compound 0.1 µM
[21] = second compound 1 µM, first compound 0.316 µM
[22] = second compound 1 µM, first compound 1 µM
[23] = second compound 1 µM, first compound 3.16 µM
[24] = second compound 1 µM, first compound 10 µM
[25] = second compound 3.16 µM, first compound 0.0316 µM
[26] = second compound 3.16 µM, first compound 0.1 µM
[27] = second compound 3.16 µM, first compound 0.316 µM
[28] = second compound 3.16 µM, first compound 1 µM
[29] = second compound 3.16 µM, first compound 3.16 µM
[30] = second compound 3.16 µM, first compound 10 µM
[31] = second compound 10 µM, first compound 0.0316 µM
[32] = second compound 10 µM, first compound 0.1 µM
[33] = second compound 10 µM, first compound 0.316 µM
[34] = second compound 10 µM, first compound 1 µM
[35] = second compound 10 µM, first compound 3.16 µM
[36] = second compound 10 µM, first compound 10 µM

CC(=O)O[C@H]1C(=O)[C@@]2(C)[C@H]([C@H](OC(=O)c3ccccc3)[C@]3(O)C[C@H](OC(=O)[C@H](O)[C@@H](NC(=O)c4ccccc4)c4ccccc4)C(C)=C1C3(C)C)[C@]1(OC(C)=O)CO[C@@H]1C[C@@H]2O + CN(C)c1ccc(Nc2c3ccc(NC(=O)CCN4CCCC4)cc3nc3cc(NC(=O)CCN4CCCC4)ccc23)cc1
< 31.6 nM: IC50 (second compound 0.0316 µM) | IC50 (second compound 0.1 µM) | IC50 (second compound 0.316 µM) | IC50 (second compound 1 µM) | IC50 (second compound 3.16 µM) | IC50 (second compound 10 µM)
active: viability, T/C [1] 7.64% | viability, T/C [2] 6.24% | viability, T/C [3] 6.32% | viability, T/C [4] 5.33% | viability, T/C [5] 5% | viability, T/C [6] 6.24% | viability, T/C [7] 7.68% | viability, T/C [8] 5.09% | viability, T/C [9] 5.96% | viability, T/C [10] 5.48% | viability, T/C [11] 6.36% | viability, T/C [12] 6.3% | viability, T/C [13] 8.36% | viability, T/C [14] 5.82% | viability, T/C [15] 5.8% | viability, T/C [16] 5.16% | viability, T/C [17] 5.67% | viability, T/C [18] 6.87% | viability, T/C [19] 7.67% | viability, T/C [20] 6.92% | viability, T/C [21] 6.05% | viability, T/C [22] 5.19% | viability, T/C [23] 6.15% | viability, T/C [24] 5.74% | viability, T/C [25] 6.2% | viability, T/C [26] 8.18% | viability, T/C [27] 6.89% | viability, T/C [28] 5.22% | viability, T/C [29] 6.1% | viability, T/C [30] 5.7% | viability, T/C [31] 7.12% | viability, T/C [32] 6.03% | viability, T/C [33] 5.99% | viability, T/C [34] 4.33% | viability, T/C [35] 4.7% | viability, T/C [36] 4.57%

Nc1ccn(C2OC(CO)C(O)C2(F)F)c(=O)n1 (centres undefined) + CN(C)c1ccc(Nc2c3ccc(NC(=O)CCN4CCCC4)cc3nc3cc(NC(=O)CCN4CCCC4)ccc23)cc1
< 31.6 nM: IC50 (second compound 0.0316 µM) | IC50 (second compound 0.1 µM) | IC50 (second compound 0.316 µM) | IC50 (second compound 1 µM) | IC50 (second compound 3.16 µM) | IC50 (second compound 10 µM)
inactive: viability, T/C [1] 11.5% | viability, T/C [7] 12.7% | viability, T/C [13] 13.1% | viability, T/C [19] 11.6% | viability, T/C [25] 10.2%
active: viability, T/C [2] 6.58% | viability, T/C [3] 6.05% | viability, T/C [4] 6.75% | viability, T/C [5] 6.08% | viability, T/C [6] 4.2% | viability, T/C [8] 5.68% | viability, T/C [9] 6.81% | viability, T/C [10] 6.8% | viability, T/C [11] 5.93% | viability, T/C [12] 4.32% | viability, T/C [14] 5.27% | viability, T/C [15] 6.2% | viability, T/C [16] 6.03% | viability, T/C [17] 5.63% | viability, T/C [18] 6.07% | viability, T/C [20] 5.93% | viability, T/C [21] 7.47% | viability, T/C [22] 6.02% | viability, T/C [23] 6.39% | viability, T/C [24] 5.81% | viability, T/C [26] 5.96% | viability, T/C [27] 6.33% | viability, T/C [28] 5.69% | viability, T/C [29] 5.78% | viability, T/C [30] 4.9% | viability, T/C [31] 6.83% | viability, T/C [32] 4.85% | viability, T/C [33] 4.16% | viability, T/C [34] 4.94% | viability, T/C [35] 4.47% | viability, T/C [36] 4.53%
